Experiment [1] concerns the target T1, Adenosine receptor A3 (Homo sapiens, UniProt P0DMS8).
T1 sequence (P0DMS8 whole entry): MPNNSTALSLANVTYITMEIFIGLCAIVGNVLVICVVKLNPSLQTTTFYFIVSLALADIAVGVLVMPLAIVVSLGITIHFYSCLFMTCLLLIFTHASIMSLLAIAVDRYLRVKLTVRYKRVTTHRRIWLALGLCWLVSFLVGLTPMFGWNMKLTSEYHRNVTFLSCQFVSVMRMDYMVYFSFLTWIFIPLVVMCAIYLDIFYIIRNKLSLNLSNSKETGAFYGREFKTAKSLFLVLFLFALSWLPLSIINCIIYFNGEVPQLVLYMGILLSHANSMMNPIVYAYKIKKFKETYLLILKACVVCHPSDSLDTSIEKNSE

The target of experiment [2] is T2, Cholecystokinin receptor type A (Homo sapiens, UniProt P32238).
T2 sequence (P32238 whole entry): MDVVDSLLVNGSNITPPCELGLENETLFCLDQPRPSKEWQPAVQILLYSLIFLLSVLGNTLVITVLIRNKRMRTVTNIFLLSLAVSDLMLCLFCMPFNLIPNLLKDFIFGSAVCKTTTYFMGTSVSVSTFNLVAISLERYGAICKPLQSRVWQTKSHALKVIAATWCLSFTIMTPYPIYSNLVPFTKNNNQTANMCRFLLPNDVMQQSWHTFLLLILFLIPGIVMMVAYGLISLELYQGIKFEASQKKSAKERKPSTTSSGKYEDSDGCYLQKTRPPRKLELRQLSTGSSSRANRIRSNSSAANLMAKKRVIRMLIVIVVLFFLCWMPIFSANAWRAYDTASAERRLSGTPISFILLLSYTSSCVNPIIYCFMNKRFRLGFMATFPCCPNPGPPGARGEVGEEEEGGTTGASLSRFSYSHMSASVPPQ

Experiment [3] has as its target T3, Alpha-2B adrenergic receptor (Homo sapiens, UniProt P18089).
T3 sequence (P18089 whole entry): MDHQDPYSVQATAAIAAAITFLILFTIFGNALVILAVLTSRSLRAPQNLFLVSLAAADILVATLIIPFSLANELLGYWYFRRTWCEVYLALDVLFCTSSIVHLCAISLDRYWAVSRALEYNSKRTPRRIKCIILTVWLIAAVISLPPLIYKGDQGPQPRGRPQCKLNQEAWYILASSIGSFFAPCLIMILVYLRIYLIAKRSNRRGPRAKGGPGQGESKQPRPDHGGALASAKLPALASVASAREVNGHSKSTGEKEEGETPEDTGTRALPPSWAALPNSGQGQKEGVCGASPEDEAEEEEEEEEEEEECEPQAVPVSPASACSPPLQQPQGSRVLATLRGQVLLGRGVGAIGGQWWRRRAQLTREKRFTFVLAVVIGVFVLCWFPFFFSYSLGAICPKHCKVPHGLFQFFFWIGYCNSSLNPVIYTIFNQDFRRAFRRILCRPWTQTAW

In experiment [4] the target is T4, Progesterone receptor (Homo sapiens, UniProt P06401).
T4 sequence (P06401 whole entry): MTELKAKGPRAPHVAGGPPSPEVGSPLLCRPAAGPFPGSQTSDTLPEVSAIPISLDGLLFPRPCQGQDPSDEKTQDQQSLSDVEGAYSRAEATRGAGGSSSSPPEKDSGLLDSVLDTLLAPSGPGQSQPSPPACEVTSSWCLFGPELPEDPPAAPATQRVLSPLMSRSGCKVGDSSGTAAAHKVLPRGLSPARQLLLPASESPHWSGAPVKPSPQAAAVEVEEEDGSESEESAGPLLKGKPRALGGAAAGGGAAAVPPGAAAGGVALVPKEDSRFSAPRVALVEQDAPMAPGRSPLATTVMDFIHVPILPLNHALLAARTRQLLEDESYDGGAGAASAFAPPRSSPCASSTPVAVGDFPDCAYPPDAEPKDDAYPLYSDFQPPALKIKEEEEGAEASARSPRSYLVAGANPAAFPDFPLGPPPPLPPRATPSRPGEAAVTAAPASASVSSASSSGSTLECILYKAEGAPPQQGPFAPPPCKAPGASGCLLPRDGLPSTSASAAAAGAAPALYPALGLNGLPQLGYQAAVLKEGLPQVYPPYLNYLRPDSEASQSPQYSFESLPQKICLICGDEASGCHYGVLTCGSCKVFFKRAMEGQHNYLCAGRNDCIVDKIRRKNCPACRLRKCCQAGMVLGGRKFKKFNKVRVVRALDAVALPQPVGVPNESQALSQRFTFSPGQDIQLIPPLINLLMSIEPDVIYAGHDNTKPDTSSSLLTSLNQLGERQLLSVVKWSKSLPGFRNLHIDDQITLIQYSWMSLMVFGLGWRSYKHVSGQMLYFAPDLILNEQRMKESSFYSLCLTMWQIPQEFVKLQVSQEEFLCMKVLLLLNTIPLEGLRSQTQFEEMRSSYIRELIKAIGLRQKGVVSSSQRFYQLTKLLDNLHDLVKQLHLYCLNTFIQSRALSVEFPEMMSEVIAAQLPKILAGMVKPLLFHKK
It is filed as functional.

For experiment [5], the target named is T5, Alpha-2C adrenergic receptor (Homo sapiens, UniProt P18825).
T5 sequence (P18825 whole entry): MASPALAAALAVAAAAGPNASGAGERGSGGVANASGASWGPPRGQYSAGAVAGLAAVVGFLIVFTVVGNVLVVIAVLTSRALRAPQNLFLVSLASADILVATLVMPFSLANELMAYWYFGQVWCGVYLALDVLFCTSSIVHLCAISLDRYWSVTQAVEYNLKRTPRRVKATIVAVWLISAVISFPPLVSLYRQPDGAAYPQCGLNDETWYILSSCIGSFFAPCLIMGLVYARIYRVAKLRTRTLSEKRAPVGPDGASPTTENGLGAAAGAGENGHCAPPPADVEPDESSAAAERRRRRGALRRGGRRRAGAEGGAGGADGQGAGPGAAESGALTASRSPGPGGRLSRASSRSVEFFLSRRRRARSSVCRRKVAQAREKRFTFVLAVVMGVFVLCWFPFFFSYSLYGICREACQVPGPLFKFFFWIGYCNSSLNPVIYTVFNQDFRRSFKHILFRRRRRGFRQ
It is filed as functional.

Experiment [6] concerns the target Vasopressin V2 receptor (Homo sapiens, UniProt P30518).
Further: assay procedure not described here.

Sequence of Vasopressin V2 receptor (P30518 whole entry): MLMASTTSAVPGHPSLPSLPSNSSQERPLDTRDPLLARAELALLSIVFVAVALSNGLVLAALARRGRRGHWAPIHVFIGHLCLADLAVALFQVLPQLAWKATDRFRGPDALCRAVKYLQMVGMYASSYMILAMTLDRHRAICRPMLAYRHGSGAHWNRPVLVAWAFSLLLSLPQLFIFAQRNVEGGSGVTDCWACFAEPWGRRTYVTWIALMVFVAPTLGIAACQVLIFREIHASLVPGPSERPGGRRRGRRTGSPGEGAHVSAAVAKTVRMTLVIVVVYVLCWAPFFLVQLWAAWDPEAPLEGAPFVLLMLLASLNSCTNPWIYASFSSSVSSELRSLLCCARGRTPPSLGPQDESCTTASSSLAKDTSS

Regarding `[H]/N=C(/N)c1ccc(NCc2nc3cc(C(=O)N(CCC(=O)O)c4ccccn4)ccc3n2C)cc1` [DABIGATRAN], the AC50 in experiment [1], in experiment [2], in experiment [3], in experiment [4], in experiment [5] and in experiment [6] was > 30 µM each time.
For `O=C1CN=C(c2ccccc2)c2cc(Cl)ccc2N1CC(F)(F)F` [HALAZEPAM], the AC50 in experiment [1] is 26 µM; in experiment [2] it was > 30 µM; in experiment [3], > 30 µM; in experiment [4], > 30 µM; in experiment [5] it was > 30 µM; in experiment [6], > 30 µM.
Take `CCCCCCCCCCCC[N+](C)(C)CCOc1ccccc1` [DOMIPHEN]: the AC50 is 10 µM in experiment [1]; > 30 µM in experiment [2]; 3.8 µM in experiment [3]; > 30 µM in experiment [4]; 4.2 µM in experiment [5]; 7.3 µM in experiment [6].
As to `CC(=O)NS(=O)(=O)c1ccc(N)cc1` [SULFACETAMIDE], the AC50 in experiment [1], in experiment [2], in experiment [3], in experiment [4], in experiment [5] and in experiment [6] was > 10 µM in each case.
On to `C=C1CC[C@@]2(O)[C@H]3Cc4ccc(O)c5c4[C@@]2(CCN3CC2CC2)[C@H]1O5`, for which the half-maximal activity concentration (AC50) in experiment [1], in experiment [2], in experiment [3], in experiment [4], in experiment [5] and in experiment [6] was > 30 µM each time.
For `COc1ccc(C(=O)NCc2ccc(OCCN(C)C)cc2)cc1OC` [ITOPRIDE], the half-maximal activity concentration (AC50) in experiment [1], in experiment [2], in experiment [3], in experiment [4], in experiment [5] and in experiment [6] was > 30 µM throughout.
`Nc1ncnc2c1ncn2[C@@H]1O[C@H](COP(=O)(O)O)[C@@H](O)[C@H]1O` [ADENOSINE PHOSPHATE]: the concentration at half-maximal activity (AC50) in experiment [1], in experiment [2], in experiment [3], in experiment [4], in experiment [5] and in experiment [6] was > 30 µM in each case.
`CCCCCOC(=O)Nc1nc(=O)n([C@@H]2O[C@H](C)[C@@H](O)[C@H]2O)cc1F` [CAPECITABINE]: the AC50 in experiment [1], in experiment [2], in experiment [3], in experiment [4], in experiment [5] and in experiment [6] was > 30 µM throughout.
For `O=C(O)Cc1cn(-c2ccccc2)nc1-c1ccc(Cl)cc1` [LONAZOLAC], the AC50 in experiment [1], in experiment [2], in experiment [3], in experiment [4], in experiment [5] and in experiment [6] was > 30 µM each time.
`CN1CC[C@]23CCCC[C@H]2[C@H]1Cc1ccc(O)cc13` [LEVORPHANOL]: the concentration at half-maximal activity (AC50) in experiment [1] was > 10 µM; in experiment [2] it was > 10 µM; in experiment [3], > 30 µM; in experiment [4], > 10 µM; in experiment [5] it was > 30 µM; in experiment [6], > 10 µM.
As to `CN1CCCN=C1COC(=O)C(O)(c1ccccc1)C1CCCCC1` (centres undefined) [OXYPHENCYCLIMINE], the concentration at half-maximal activity (AC50) in experiment [1], in experiment [2], in experiment [3], in experiment [4], in experiment [5] and in experiment [6] was > 10 µM each time.
Turning to `CC(C)[N+](C)(CCC(C(N)=O)(c1ccccc1)c1ccccc1)C(C)C` [ISOPROPAMIDE], the AC50 in experiment [1], in experiment [2], in experiment [3], in experiment [4], in experiment [5] and in experiment [6] was > 10 µM in each case.
In the case of `CN1CCN(C(=O)OC2c3nccnc3C(=O)N2c2ccc(Cl)cn2)CC1` (centres undefined) [ZOPICLONE], the AC50 in experiment [1] is 18.3 µM; in experiment [2], > 30 µM; in experiment [3], > 30 µM; in experiment [4] it was > 30 µM; in experiment [5] it was > 30 µM; in experiment [6] it was > 30 µM.
For the compound `O=C(OCCN1CCOCC1)c1cccnc1Nc1cccc(C(F)(F)F)c1` [MORNIFLUMATE], the AC50 in experiment [1], in experiment [2], in experiment [3], in experiment [4], in experiment [5] and in experiment [6] was > 30 µM each time.
On to `C1=Cc2cccc(OCC3CNCCO3)c2C1` (centres undefined) [INDELOXAZINE], for which the AC50 in experiment [1], in experiment [2], in experiment [3], in experiment [4], in experiment [5] and in experiment [6] was > 30 µM each time.
In the case of `Cc1c(Cl)cccc1Nc1ccccc1C(=O)O` [TOLFENAMIC ACID], the half-maximal activity concentration (AC50) is 12 µM in experiment [1]; > 30 µM in experiment [2]; > 30 µM in experiment [3]; > 30 µM in experiment [4]; > 30 µM in experiment [5]; > 30 µM in experiment [6].
For the compound `CN1CCC2=C(C1)C(c1ccccc1)c1ccccc12` (centres undefined) [PHENINDAMINE], the concentration at half-maximal activity (AC50) in experiment [1] is > 10 µM; in experiment [2], > 10 µM; in experiment [3] it was > 10 µM; in experiment [4] it was > 30 µM; in experiment [5] it was 12 µM; in experiment [6] it was > 10 µM.
For the compound `CC(C)C(=O)OCC(=O)[C@@]12O[C@H](C3CCCCC3)O[C@@H]1C[C@H]1[C@@H]3CCC4=CC(=O)C=C[C@]4(C)[C@H]3[C@@H](O)C[C@@]12C` [CICLESONIDE], the half-maximal activity concentration (AC50) is 4.2 µM in experiment [1]; > 10 µM in experiment [2]; > 10 µM in experiment [3]; 7.1 µM in experiment [4]; > 10 µM in experiment [5]; > 10 µM in experiment [6].
For the compound `C#CC1(OC(N)=O)CCCCC1` [ETHINAMATE], the AC50 in experiment [1], in experiment [2], in experiment [3], in experiment [4], in experiment [5] and in experiment [6] was > 10 µM each time.

Values taken from ChEMBL document CHEMBL5291721, “A preclinical secondary pharmacology resource illuminates target-adverse drug reaction associations of marketed drugs” (Nat Commun, 2023).
